Measured values as given in ChEMBL document CHEMBL1124623, “2,4-Diamino-5-benzylpyrimidines and analogues as antibacterial agents. 12. 1,2-Dihydroquinolylmethyl analogues with high activity and specificity for bacterial dihydrofolate reductase” (J Med Chem, 1989).
≈ marks a conversion by molar mass, not a printed value.

What was measured:
Escherichia coli [1] = assay: Comparative in vitro antibacterial activity of compound with trimethoprim against Escherichia coli CN314; assay type: functional
Klebsiella aerogenes [2] = assay: Comparative in vitro antibacterial activity of compound with trimethoprim against Enterobacter aerogenes 2200/86; assay type: functional
Klebsiella pneumoniae [3] = assay: Comparative in vitro antibacterial activity of compound with trimethoprim against Klebsiella pneumoniae CN3632; assay type: functional
Proteus vulgaris [4] = assay: Comparative in vitro antibacterial activity of compound with trimethoprim against Proteus vulgaris CN329; assay type: functional
[5] = Comparative in vitro antibacterial activity of compound with trimethoprim against Salmonella typhi CN512; assay type: functional, salmonella typhosa
Shigella flexneri [6] = assay: Comparative in vitro antibacterial activity of compound with trimethoprim against Shigella flexneri CN6007; assay type: functional
Salmonella typhimurium [7] = assay: Comparative in vitro antibacterial activity of compound with trimethoprim against Salmonella Typhimurium S 8587; assay type: functional, Salmonella enterica subsp. enterica serovar Typhimurium; details: Salmonella enterica
Streptococcus pyogenes [8] = assay: Comparative in vitro antibacterial activity of compound with trimethoprim against Streptococcus pyogenes CN10; assay type: functional
Staphylococcus aureus = assay: Comparative in vitro antibacterial activity of compound with trimethoprim against Staphylococcus aureus CN491; assay type: functional
Enterococcus faecalis = assay: Comparative in vitro antibacterial activity of compound with trimethoprim against Streptococcus faecalis CN478; assay type: functional
Streptococcus agalactiae [9] = assay: Comparative in vitro antibacterial activity of compound with trimethoprim against Streptococcus agalactiae CN1143; assay type: functional
Vibrio cholerae = assay: Comparative in vitro antibacterial activity of compound with trimethoprim against Vibrio cholerae ATCC 14035; assay type: functional
Dihydrofolate reductase [10] = biological target: T1, Dihydrofolate reductase (Escherichia coli, UniProt P0ABQ4)
T1 sequence (P0ABQ4 whole entry): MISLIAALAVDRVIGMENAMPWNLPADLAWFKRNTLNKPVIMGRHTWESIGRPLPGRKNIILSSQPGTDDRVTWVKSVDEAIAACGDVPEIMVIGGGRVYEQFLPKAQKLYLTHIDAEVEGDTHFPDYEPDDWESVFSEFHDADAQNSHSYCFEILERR
Description: Apparent binding affinity of compound in Escherichia coli DHFR

Dihydrofolate reductase [11] = biological target: T2, Dihydrofolate reductase (Rattus norvegicus, UniProt Q920D2)
T2 sequence (Q920D2 whole entry): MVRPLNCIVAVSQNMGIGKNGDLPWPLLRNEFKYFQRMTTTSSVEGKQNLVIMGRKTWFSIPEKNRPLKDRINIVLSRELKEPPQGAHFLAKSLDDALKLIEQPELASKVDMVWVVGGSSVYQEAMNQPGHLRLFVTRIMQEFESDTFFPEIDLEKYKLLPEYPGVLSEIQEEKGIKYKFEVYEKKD

[12] = Dissociation constant of compound at 20 degree C; assay type: physicochemical
Dihydrofolate reductase [13] = biological target: T2, Dihydrofolate reductase; assay: Inhibitory activity against Dihydrofolate reductase in rat liver; assay type: functional, tissue-based; details: read-out: I50
Dihydrofolate reductase [14] = biological target: T3, Dihydrofolate reductase (Gallus gallus, UniProt P00378); assay: Inhibitory activity against Dihydrofolate reductase in chicken; details: read-out: I50
T3 sequence (P00378 whole entry): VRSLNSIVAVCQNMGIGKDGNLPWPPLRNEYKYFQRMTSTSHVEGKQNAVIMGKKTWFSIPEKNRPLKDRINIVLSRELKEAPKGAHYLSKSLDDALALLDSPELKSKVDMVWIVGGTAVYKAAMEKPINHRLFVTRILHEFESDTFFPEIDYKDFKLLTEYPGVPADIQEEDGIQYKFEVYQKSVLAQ

Escherichia coli [15] = assay: Comparative in vitro antibacterial activity of compound with trimethoprim against Escherichia coli CN314 on different day; assay type: functional
Klebsiella aerogenes [16] = assay: Comparative in vitro antibacterial activity of compound with trimethoprim against Enterobacter aerogenes 2200/86 on different day; assay type: functional
Klebsiella pneumoniae [17] = assay: Comparative in vitro antibacterial activity of compound with trimethoprim against Klebsiella pneumoniae CN3632 on different day; assay type: functional
Proteus vulgaris [18] = assay: Comparative in vitro antibacterial activity of compound with trimethoprim against Proteus vulgaris CN329 on different day; assay type: functional
[19] = Comparative in vitro antibacterial activity of compound with trimethoprim against Salmonella typhi CN512 on different day; assay type: functional, salmonella typhosa
Salmonella typhimurium [20] = assay: Comparative in vitro antibacterial activity of compound with trimethoprim against Salmonella Typhimurium S 8587 on different day; assay type: functional, Salmonella enterica subsp. enterica serovar Typhimurium; details: Salmonella enterica
Streptococcus pyogenes [21] = assay: Comparative in vitro antibacterial activity of compound with trimethoprim against Streptococcus pyogenes CN10 on different day; assay type: functional
Streptococcus agalactiae [22] = assay: Comparative in vitro antibacterial activity of compound with trimethoprim against Streptococcus agalactiae CN1143 on different day; assay type: functional
Shigella flexneri [23] = assay: Comparative in vitro antibacterial activity of compound with trimethoprim against Shigella flexneri CN6007 on different day; assay type: functional

CSc1cc(Cc2cnc(N)nc2N)cc2c1NC(C)(C)C=C2C
MIC (Escherichia coli [1]): 10 µg/mL (≈ 29.3 µM)
MIC (Klebsiella aerogenes [2]): 10 µg/mL (≈ 29.3 µM)
MIC (Klebsiella pneumoniae [3]): 100 µg/mL (≈ 293 µM)
MIC (Proteus vulgaris [4]): > 100 µg/mL
MIC [5]: 30 µg/mL (≈ 87.9 µM)
MIC (Shigella flexneri [6]): 30 µg/mL (≈ 87.9 µM)
MIC (Salmonella typhimurium [7]): 30 µg/mL (≈ 87.9 µM)
MIC (Streptococcus pyogenes [8]): 0.1 µg/mL (≈ 0.293 µM)
MIC (Staphylococcus aureus): 0.3 µg/mL (≈ 0.879 µM)
MIC (Enterococcus faecalis): ≤ 0.03 µg/mL
MIC (Streptococcus agalactiae [9]): 0.3 µg/mL (≈ 0.879 µM)
MIC (Vibrio cholerae): 1 µg/mL (≈ 2.93 µM)
Ki (Dihydrofolate reductase [10]): 0.00043 µM
IC50 (Dihydrofolate reductase [11]): 118 µM

COc1cc(Cc2cnc(N)nc2N)cc2c1NCCC2C (stereo not drawn)
IC50 (Dihydrofolate reductase [11]): 33 µM

CC1CC(C)(C)Nc2ccc(Cc3cnc(N)nc3N)cc21 (stereo not drawn)
IC50 (Dihydrofolate reductase [11]): 300 µM

CC1=CC(C)(C)Nc2c1cc(Cc1cnc(N)nc1N)cc2[S+](C)[O-] (stereo not drawn)
IC50 (Dihydrofolate reductase [11]): 56 µM

CC1=CC(C)(C)Nc2c(C)cc(Cc3cnc(N)nc3N)cc21
IC50 (Dihydrofolate reductase [11]): 500 µM

COc1cccc2c1N(C)C(C)(C)C=C2C
pKa [12]: 6.82

COc1cc(Cc2cnc(N)nc2N)cc2c1N(C)CCC2C (stereo not drawn)
pKa [12]: 6.51
IC50 (Dihydrofolate reductase [13]): 250 µM

COc1cc(Cc2cnc(N)nc2N)cc2c1NC(C)(C)CC2C (stereo not drawn)
MIC (Escherichia coli [1]): 30 µg/mL (≈ 91.6 µM)
MIC (Klebsiella aerogenes [2]): 10 µg/mL (≈ 30.5 µM)
MIC (Proteus vulgaris [4]): > 100 µg/mL
MIC [5]: 100 µg/mL (≈ 305 µM)
MIC (Shigella flexneri [6]): 30 µg/mL (≈ 91.6 µM)
MIC (Salmonella typhimurium [7]): 30 µg/mL (≈ 91.6 µM)
MIC (Streptococcus pyogenes [8]): 1 µg/mL (≈ 3.05 µM)
MIC (Staphylococcus aureus): 3 µg/mL (≈ 9.16 µM)
MIC (Enterococcus faecalis): 1 µg/mL (≈ 3.05 µM)
MIC (Streptococcus agalactiae [9]): 1 µg/mL (≈ 3.05 µM)
MIC (Vibrio cholerae): 3 µg/mL (≈ 9.16 µM)
IC50 (Dihydrofolate reductase [11]): 430 µM

COc1cc(Cc2cnc(N)nc2N)cc2c(C)ccnc12
IC50 (Dihydrofolate reductase [11]): 20 µM

COc1cc(Cc2cnc(N)nc2N)cc2c1N(CCOC(C)=O)C(C)(C)C=C2C
IC50 (Dihydrofolate reductase [11]): 164 µM

CN1CCCc2ccccc21
pKa [12]: 4.1

CCN1CCC(C)c2ccccc21 (stereo not drawn)
pKa [12]: 4.18

CC1=CC(C)(C)Nc2ccc(Cc3cnc(N)nc3N)cc21
IC50 (Dihydrofolate reductase [11]): 240 µM

CC1=CC(C)(C)Nc2c1cc(Cc1cnc(N)nc1N)c1cccnc21
MIC (Escherichia coli [1]): 30 µg/mL (≈ 86.6 µM)
MIC (Klebsiella aerogenes [2]): 10 µg/mL (≈ 28.9 µM)
MIC (Klebsiella pneumoniae [3]): > 300 µg/mL
MIC (Proteus vulgaris [4]): > 100 µg/mL
MIC [5]: 30 µg/mL (≈ 86.6 µM)
MIC (Shigella flexneri [6]): 100 µg/mL (≈ 289 µM)
MIC (Salmonella typhimurium [7]): 100 µg/mL (≈ 289 µM)
MIC (Streptococcus pyogenes [8]): 0.03 µg/mL (≈ 0.0866 µM)
MIC (Staphylococcus aureus): 0.1 µg/mL (≈ 0.289 µM)
MIC (Enterococcus faecalis): 0.3 µg/mL (≈ 0.866 µM)
MIC (Streptococcus agalactiae [9]): 0.3 µg/mL (≈ 0.866 µM)
MIC (Vibrio cholerae): 1 µg/mL (≈ 2.89 µM)

COc1cccc2c1NC(C)(C)C=C2C
pKa [12]: 3.36

COc1cc(Cc2cnc(N)nc2N)cc2c1NC(C)(C)C=C2C
IC50 (Dihydrofolate reductase [14]): 1.3 µM
MIC (Escherichia coli [1]): 3 µg/mL (≈ 9.22 µM)
MIC (Klebsiella aerogenes [2]): 3 µg/mL (≈ 9.22 µM)
MIC (Klebsiella pneumoniae [3]): 10 µg/mL (≈ 30.7 µM)
MIC (Proteus vulgaris [4]): 3 µg/mL (≈ 9.22 µM)
MIC [5]: 10 µg/mL (≈ 30.7 µM)
MIC (Shigella flexneri [6]): 3 µg/mL (≈ 9.22 µM)
MIC (Salmonella typhimurium [7]): 10 µg/mL (≈ 30.7 µM)
MIC (Streptococcus pyogenes [8]): 0.1 µg/mL (≈ 0.307 µM)
MIC (Staphylococcus aureus): 0.3 µg/mL (≈ 0.922 µM)
MIC (Enterococcus faecalis): 0.1 µg/mL (≈ 0.307 µM)
MIC (Streptococcus agalactiae [9]): 0.3 µg/mL (≈ 0.922 µM)
MIC (Vibrio cholerae): 3 µg/mL (≈ 9.22 µM)
IC50 (Dihydrofolate reductase [11]): 300 µM

CC1=CC(C)(C)Nc2c(Cl)cc(Cc3cnc(N)nc3N)cc21
MIC (Escherichia coli [1]): 100 µg/mL (≈ 303 µM)
MIC (Klebsiella aerogenes [2]): 300 µg/mL (≈ 910 µM)
MIC (Klebsiella pneumoniae [3]): 30 µg/mL (≈ 91 µM)
MIC (Proteus vulgaris [4]): 30 µg/mL (≈ 91 µM)
MIC [5]: 30 µg/mL (≈ 91 µM)
MIC (Shigella flexneri [6]): 100 µg/mL (≈ 303 µM)
MIC (Salmonella typhimurium [7]): 30 µg/mL (≈ 91 µM)
MIC (Streptococcus pyogenes [8]): 10 µg/mL (≈ 30.3 µM)
MIC (Staphylococcus aureus): 30 µg/mL (≈ 91 µM)
MIC (Enterococcus faecalis): 300 µg/mL (≈ 910 µM)
MIC (Streptococcus agalactiae [9]): 100 µg/mL (≈ 303 µM)
MIC (Vibrio cholerae): 100 µg/mL (≈ 303 µM)
IC50 (Dihydrofolate reductase [11]): 76 µM

COc1cc(Cc2cnc(N)nc2N)cc2c1NC(C)(CF)C=C2CF (stereo not drawn)
MIC (Escherichia coli [1]): 10 µg/mL (≈ 27.7 µM)
MIC (Klebsiella aerogenes [2]): 30 µg/mL (≈ 83 µM)
MIC (Klebsiella pneumoniae [3]): 10 µg/mL (≈ 27.7 µM)
MIC (Proteus vulgaris [4]): 10 µg/mL (≈ 27.7 µM)
MIC [5]: 10 µg/mL (≈ 27.7 µM)
MIC (Shigella flexneri [6]): 10 µg/mL (≈ 27.7 µM)
MIC (Salmonella typhimurium [7]): 3 µg/mL (≈ 8.3 µM)
MIC (Streptococcus pyogenes [8]): 0.1 µg/mL (≈ 0.277 µM)
MIC (Staphylococcus aureus): 0.3 µg/mL (≈ 0.83 µM)
MIC (Enterococcus faecalis): 0.3 µg/mL (≈ 0.83 µM)
MIC (Streptococcus agalactiae [9]): 0.3 µg/mL (≈ 0.83 µM)
MIC (Vibrio cholerae): 3 µg/mL (≈ 8.3 µM)
IC50 (Dihydrofolate reductase [11]): 230 µM

CCc1cc(Cc2cnc(N)nc2N)cc2c1NC(C)(C)C=C2C
IC50 (Dihydrofolate reductase [11]): 174 µM

CCOc1cc(Cc2cnc(N)nc2N)cc2c1NC(C)(C)C=C2C
IC50 (Dihydrofolate reductase [11]): 250 µM

COc1cc(Cc2cnc(N)nc2N)cc2c1NC(C)(CF)C(F)=C2C (stereo not drawn)
MIC (Escherichia coli [1]): 1 µg/mL (≈ 2.77 µM)
MIC (Escherichia coli [15]): 10 µg/mL (≈ 27.7 µM)
MIC (Klebsiella aerogenes [2]): 1 µg/mL (≈ 2.77 µM)
MIC (Klebsiella aerogenes [16]): 10 µg/mL (≈ 27.7 µM)
MIC (Klebsiella pneumoniae [3]): 10 µg/mL (≈ 27.7 µM)
MIC (Klebsiella pneumoniae [17]): 1 µg/mL (≈ 2.77 µM)
MIC (Proteus vulgaris [4]): 3 µg/mL (≈ 8.3 µM)
MIC (Proteus vulgaris [18]): 3 µg/mL (≈ 8.3 µM)
MIC [19]: 30 µg/mL (≈ 83 µM)
MIC [5]: 1 µg/mL (≈ 2.77 µM)
MIC (Shigella flexneri [6]): 3 µg/mL (≈ 8.3 µM)
MIC (Salmonella typhimurium [7]): 3 µg/mL (≈ 8.3 µM)
MIC (Salmonella typhimurium [20]): 3 µg/mL (≈ 8.3 µM)
MIC (Streptococcus pyogenes [8]): 0.03 µg/mL (≈ 0.083 µM)
MIC (Streptococcus pyogenes [21]): 0.0001 µg/mL (≈ 0.000277 µM)
MIC (Staphylococcus aureus): 0.001 µg/mL (≈ 0.00277 µM)
MIC (Enterococcus faecalis): 0.0001 µg/mL (≈ 0.000277 µM)
MIC (Streptococcus agalactiae [9]): 0.1 µg/mL (≈ 0.277 µM)
MIC (Streptococcus agalactiae [22]): 0.03 µg/mL (≈ 0.083 µM)
MIC (Vibrio cholerae): 3 µg/mL (≈ 8.3 µM)
MIC (Shigella flexneri [23]): 0.3 µg/mL (≈ 0.83 µM)
Ki (Dihydrofolate reductase [10]): 0.0001 µM
IC50 (Dihydrofolate reductase [11]): 233 µM

CC1=CC(C)(C)Nc2ccccc21
pKa [12]: 3.69

COc1cc(Cc2cnc(N)nc2N)cc2c1N(C)C(C)(C)C=C2C
IC50 (Dihydrofolate reductase [11]): 340 µM
